The values below come from patent US12692223B2, “Phenyl-sulfamoyl-benzoic acid derivatives as ERAP1-modulators” (GREY WOLF THERAPEUTICS LIMITED, priority 2021, dated 2026).

Structures are written as SMILES. pIC50: −log10 of the molar value. A value given as a limit tells only on which side of the number the result lay.

In the assay the target is T1, ERAP1 (Homo sapiens, UniProt Q9NZ08).
T1 construct: Purified ERAP1(37-941)-10His (ERAP1)
T1 sequence (Q9NZ08 37-941): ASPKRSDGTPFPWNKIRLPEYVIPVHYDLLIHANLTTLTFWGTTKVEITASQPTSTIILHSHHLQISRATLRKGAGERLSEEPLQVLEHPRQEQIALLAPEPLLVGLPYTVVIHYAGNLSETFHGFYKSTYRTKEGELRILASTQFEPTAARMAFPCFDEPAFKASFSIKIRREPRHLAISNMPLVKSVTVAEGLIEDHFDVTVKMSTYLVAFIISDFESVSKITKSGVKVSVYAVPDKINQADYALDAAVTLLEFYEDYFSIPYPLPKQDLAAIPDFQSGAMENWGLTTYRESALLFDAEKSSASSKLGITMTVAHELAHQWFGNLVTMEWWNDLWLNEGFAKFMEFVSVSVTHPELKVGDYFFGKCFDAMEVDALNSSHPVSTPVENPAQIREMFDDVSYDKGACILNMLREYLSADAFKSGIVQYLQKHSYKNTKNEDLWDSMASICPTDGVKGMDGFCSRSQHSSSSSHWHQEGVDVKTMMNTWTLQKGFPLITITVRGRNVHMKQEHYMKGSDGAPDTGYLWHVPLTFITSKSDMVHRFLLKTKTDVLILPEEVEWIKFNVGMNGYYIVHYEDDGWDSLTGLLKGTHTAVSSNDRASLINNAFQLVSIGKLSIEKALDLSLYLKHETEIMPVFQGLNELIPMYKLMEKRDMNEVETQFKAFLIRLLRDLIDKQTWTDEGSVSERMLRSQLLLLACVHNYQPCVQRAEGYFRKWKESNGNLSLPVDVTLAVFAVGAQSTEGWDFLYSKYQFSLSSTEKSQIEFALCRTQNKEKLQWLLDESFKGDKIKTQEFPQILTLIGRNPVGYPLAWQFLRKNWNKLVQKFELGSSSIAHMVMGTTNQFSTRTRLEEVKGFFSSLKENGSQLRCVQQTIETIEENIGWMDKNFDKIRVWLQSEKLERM
The experiment in a line: ERAP1 mediated hydrolysis of an amide substrate measured in a biochemical system (10-mer inhibition assay). The following applies: purified ERAP1(37-941)-10His; 10-mer substrate; 23° C. for 1 h; excitation 279 nm, emission 355 nm; read-out: IC50 vs Decapeptide WRVYEKC(Dnp)ALK-acid (where Dnp is Dinitrophenyl maleimide) (10-mer). The protocol: Biological Assay 1: ERAP1 Mediated Hydrolysis of an Amide Substrate Measured in a Biochemical System
• 1× Assay buffer (AB): 25 mM Bis-tris propane, 0.05% w/v • Hydroxypropylmethylcellulose pH 7.75 made with Optima grade water • Decapeptide WRVYEKC(Dnp)ALK-acid (where Dnp is Dinitrophenyl maleimide) (10-mer) • L-Leucine 7-amido-4-methylcoumarin (L-AMC) • Purified ERAP1(37-941)-10His (ERAP1) Assay Procedure:
12.5 μL ERAP1 enzyme in 1×AB was combined with 250 nL test compound in DMSO. 12.5 μL of either 240 μM L-AMC in 1×AB or 100 μM 10-mer in 1×AB was added to the reaction and incubated at 23° C. for 1 h. For detection, plates were read at excitation 365 nm and emission 442 nm (L-AMC) or excitation 279 nm and emission 355 nm (10-mer). Compound IC50 was determined using a 4-parameter equation.
One may read the pIC50 as the negative decadic logarithm of the IC50, by convention in mol/L. As for `N#Cc1cc(NS(=O)(=O)c2cc(C(=O)O)ccc2C2CC2)c(OC2CCC2C2CC2)cc1Cl` (mixture of isomers) [Example 108, 3-(N-(4-chloro-5-cyano-2-(2-cyclopropylcyclobutoxy)-phenyl)sulfamoyl)-4-cyclopropylbenzoic acid], the pIC50 is over 9.00.
The value for `COC1(COc2cc(Cl)c(C#N)cc2NS(=O)(=O)c2cc(C(=O)O)ccc2C2CC2)CCC1` [Example 87, 3-(N-(4-chloro-5-cyano-2-((1-methoxycyclobutyl)methoxy)phenyl)sulfamoyl)-4-cyclopropylbenzoic acid] was over 9.00; that for `Cc1oncc1-c1ccc(OC2CCCC2)c(NS(=O)(=O)c2cc(C(=O)O)ccc2C2CC2)c1` [Example 23, 3-(N-(2-(cyclopentyloxy)-5-(5-methylisoxazol-4-yl)phenyl)sulfamoyl)-4-cyclopropylbenzoic acid] was over 9.00.
For the compound `N#Cc1cc(NS(=O)(=O)c2cc(C(=O)O)ccc2C2CC2)c(OC2CCC(F)(F)C2)cc1Cl` (single isomer, unassigned) [Example 140, 3-(N-(4-chloro-5-cyano-2-((3,3-difluorocyclopentyl)oxy)phenyl)sulfa-moyl)-4-cyclopropylbenzoic acid], the pIC50 was over 9.00.
Under `N#Cc1cc(NS(=O)(=O)c2cc(C(=O)O)ccc2C2CC2)c(OC2CCC2C2CC2)cc1Cl` (single isomer, unassigned) [Example 133, 3-(N-(4-chloro-5-cyano-2-(2-cyclopropylcyclobutoxy)phenyl)sulfamoyl)-4-cyclopropylbenzoic acid] stands 8.30 to 9.00; under `CO[C@H]1C[C@@H](Oc2cc(Cl)c(C#N)cc2NS(=O)(=O)c2cc(C(=O)O)ccc2C2CC2)C1` [Example 68, 3-(N-(4-chloro-5-cyano-2-(cis-3-methoxycyclobutoxy)phenyl)sulfamoyl)-4-cyclopropylbenzoic acid], 8.30 to 9.00; under `Cc1oncc1-c1cc(NS(=O)(=O)c2cc(C(=O)O)ccc2C2CC2)c(OC2CC(F)(F)C2)cc1Cl` [Example 61, 3-(N-(4-chloro-2-(3,3-difluorocyclobutoxy)-5-(5-methylisoxazol-4-yl)phenyl)sulfamoyl)-4-cyclopropylbenzoic acid], over 9.00.
The value for `O=C(O)c1ccc(C2CC2)c(S(=O)(=O)Nc2cc(-n3cnnn3)c(F)cc2OC2CCCC2)c1` [Example 9, 3-(N-(2-(cyclopentyloxy)-4-fluoro-5-(1H-tetrazol-1-yl)phenyl)sulfamoyl)-4-cyclopropylbenzoic acid] was over 9.00; that for `N#Cc1cc(NS(=O)(=O)c2cc(C(=O)O)ccc2C2CC2)c(OCC2CCOC2)cc1Cl` (stereo not drawn) [Example 28, 3-(N-(4-chloro-5-cyano-2-((tetrahydrofuran-3-yl)methoxy)phenyl)sulfamoyl)-4-cyclopropylbenzoic acid] was 8.30 to 9.00.
The value for `CC1CCC1Oc1cc(Cl)c(C#N)cc1NS(=O)(=O)c1cc(C(=O)O)ccc1C1CC1` (single isomer, unassigned) [Example 122, 3-(N-(4-chloro-5-cyano-2-(2-methylcyclobutoxy)phenyl)sulfamoyl)-4-cyclopropylbenzoic acid] was 8.30 to 9.00; that for `N#Cc1cc(NS(=O)(=O)c2cc(C(=O)O)ccc2C2CC2)c(OC2CCCC2O)cc1Cl` (racemic) [Example 59, 3-(N-(4-chloro-5-cyano-2-((trans-2-hydroxycyclopentyl)oxy)phenyl)sulfamoyl)-4-cyclopropylbenzoic acid] was over 9.00.
Consider `COC1CCCC1Oc1cc(Cl)c(C#N)cc1NS(=O)(=O)c1cc(C(=O)O)ccc1C1CC1` (single isomer, unassigned) [Example 103, 3-(N-(4-chloro-5-cyano-2-((trans-2-methoxycyclopentyl)-oxy)phenyl)sulfamoyl)-4-cyclopropylbenzoic acid], for which the pIC50 was over 9.00.
The value for `N#Cc1cc(NS(=O)(=O)c2cc(C(=O)O)ccc2C2CC2)c(OC2CCC2O)cc1Cl` (single isomer, unassigned) [Example 136, 3-(N-(4-chloro-5-cyano-2-(csi-2-hydroxycyclobutoxy)phenyl)sulfamoyl)-4-cyclopropylbenzoic acid] was over 9.00; that for `CC1CC(Oc2cc(Cl)c(C#N)cc2NS(=O)(=O)c2cc(C(=O)O)ccc2C2CC2)C1` (single isomer, unassigned) [Example 114, 3-(N-(4-chloro-5-cyano-2-(3-methylcyclobutoxy)phenyl)sulfamoyl)-4-cyclopropylbenzoic acid] was over 9.00; that for `CO[C@H]1C[C@@H](COc2cc(Cl)c(C#N)cc2NS(=O)(=O)c2cc(C(=O)O)ccc2C2CC2)C1` [Example 47, 3-(N-(4-chloro-5-cyano-2-((cis-3-methoxycyclobutyl)methoxy)phenyl)sulfamoyl)-4-cyclopropylbenzoic acid] was over 9.00.
Under `O=C(O)c1ccc(C2CC2)c(S(=O)(=O)Nc2cc(-n3cnnn3)c(Cl)cc2OC2CCCC2)c1` [Example 10, 3-(N-(4-chloro-2-(cyclopentyloxy)−5-(1H-tetrazol-1-yl)phenyl)sulfamoyl)-4-cyclopropylbenzoic acid] stands over 9.00.
Under `N#Cc1cc(NS(=O)(=O)c2cc(C(=O)O)ccc2C2CC2)c(O[C@H]2C[C@@H](C#N)C2)cc1Cl` [Example 53, 3-(N-(4-chloro-5-cyano-2-(cis-3-cyanocyclobutoxy)phenyl)sulfamoyl)-4-cyclopropylbenzoic acid] stands 8.30 to 9.00.
Take `COc1ccc(C(=O)O)cc1S(=O)(=O)Nc1cc(C(F)(F)F)ccc1OC1CCCC1` [Example 2, 3-(N-(2-(cyclopentyloxy)^−5-(trifluoromethyl)phenyl)sulfamoyl)-4-methoxybenzoic acid]: the pIC50 was under 8.30.
The value for `O=C(O)c1ccc(C2CC2)c(S(=O)(=O)Nc2cc(-c3ccns3)c(Cl)cc2OC2CCCC2)c1` [Example 22, 3-(N-(4-chloro-2-(cyclopentyloxy)−5-(isothiazol-5-yl)phenyl)sulfamoyl)-4-cyclopropylbenzoic acid] was over 9.00; that for `COC1CCC1Oc1cc(Cl)c(C#N)cc1NS(=O)(=O)c1cc(C(=O)O)ccc1C1CC1` (single isomer, unassigned) [Example 139, 3-(N-(4-chloro-5-cyano-2-(trans-2-methoxycyclobutoxy)phenyl)sulfamoyl)-4-cyclopropylbenzoic acid] was under 8.30.
`CC1(C)CCC[C@@H]1Oc1cc(Cl)c(C#N)cc1NS(=O)(=O)c1cc(C(=O)O)ccc1C1CC1` [Example 57, (S)−3-(N-(4-chloro-5-cyano-2-((2,2-dimethylcyclopentyl)oxy)phenyl)sulfamoyl)-4-cyclopropylbenzoic acid]: the pIC50 was over 9.00.
Consider `N#Cc1cc(NS(=O)(=O)c2cc(C(=O)O)ccc2C2CC2)c(OC2CCC(C#N)C2)cc1Cl` (racemic) [Example 72, 3-(N-(4-chloro-5-cyano-2-((trans-3-cyanocyclopentyl)oxy)phenyl)sulfamoyl)-4-cyclopropylbenzoic acid], for which the pIC50 is over 9.00.
Take `CC1CCCC1Oc1cc(Cl)c(C#N)cc1NS(=O)(=O)c1cc(C(=O)O)ccc1C1CC1` (single isomer, unassigned) [Example 99, 3-(N-(4-chloro-5-cyano-2-((trans-2-methylcyclopentyl)oxy)-phenyl)sulfamoyl)-4-cyclopropylbenzoic acid]: the pIC50 is over 9.00.
Under `N#Cc1cc(NS(=O)(=O)c2cc(C(=O)O)ccc2C2CC2)c(O[C@@H]2CCC[C@H]2O)cc1Cl` [Example 97, 3-(N-(4-chloro-5-cyano-2-(((1R,2R)−2-hydroxycyclopentyl)oxy)phenyl)sulfamoyl)-4-cyclopropylbenzoic acid] stands over 9.00; under `N#Cc1cc(NS(=O)(=O)c2cc(C(=O)O)ccc2C2CC2)c(OCC23COC(C2)C3)cc1Cl` [Example 65, 3-(N-(2-((2-oxabicyclo[2.1.1]hexan-4-yl)methoxy)-4-chloro-5-cyanophenyl)sulfamoyl)-4-cyclopropylbenzoic acid], 8.30 to 9.00; under `CC1(Oc2cc(Cl)c(C#N)cc2NS(=O)(=O)c2cc(C(=O)O)ccc2C2CC2)CCC1` [Example 62, 3-(N-(4-chloro-5-cyano-2-(1-methylcyclobutoxy)phenyl)sulfamoyl)-4-cyclopropylbenzoic acid], over 9.00.
Regarding `O=C(O)c1ccc(C2CC2)c(S(=O)(=O)Nc2cc(-c3ccns3)ccc2OC2CCCC2)c1` [Example 20, 3-(N-(2-(cyclopentyloxy)-5-(isothiazol-5-yl)phenyl)sulfamoyl)-4-cyclopropylbenzoic acid], the negative logarithm of the IC50 (pIC50) is over 9.00.
On to `N#Cc1cc(NS(=O)(=O)c2cc(C(=O)O)ccc2C2CC2)c(O[C@H]2CCOC2)cc1Cl` [Example 49, (S)-3-(N-(4-chloro-5-cyano-2-((tetrahydrofuran-3-yl)oxy)phenyl)sulfamoyl)-4-cyclopropylbenzoic acid], for which the pIC50 was 8.30 to 9.00.
Take `N#Cc1cc(NS(=O)(=O)c2cc(C(=O)O)ccc2C2CC2)c(OC2CCCC23CC3)cc1Cl` (stereo not drawn) [Example 69, 3-(N-(4-chloro-5-cyano-2-(spiro[2.4]heptan-4-yloxy)phenyl)sulfamoyl)-4-cyclopropylbenzoic acid]: the pIC50 is over 9.00.
Under `COC1CCC1Oc1cc(Cl)c(C#N)cc1NS(=O)(=O)c1cc(C(=O)O)ccc1C1CC1` (single isomer, unassigned) [Example 138, 3-(N-(4-chloro-5-cyano-2-(trans-2-methoxycyclobutoxy)phenyl)sulfamoyl)-4-cyclopropylbenzoic acid] stands over 9.00.
